In patent publication US7553652B2, “Process for the preparation of (S)- or (R)-3,3,3-trifluoro-2-hydroxy-2-methylpropionic acid” (Lonza AG, priority 1996, dated 2009):

Columns and labels:
amidohydrolase = assay: Enzyme characterization with heat-treated cell-free extract; type: biochemical, Klebsiella oxytoca PRS1K17 (DSM 11623); settings: for effect of methanol on the amidohydrolase: methanol 5 to 20%, 40 and 60° C., substrate 1% (64 mM), 100 mM CAPS buffer pH 10.0
Protocol: A heat-treated cell-free extract was employed for characterizing the amidase. Cells of Klebsiella oxytoca PRS1K17 (DSM 11623) (OD650=160) were disrupted by passing through a French press at 19000 psi (1309 bar). Benzonase (1 μl×30 ml extract^−1) was added, and the extract was then centrifuged for 1 hour at 20000×g. The supernatant (approx. 20 mg×ml^−1 protein) was heated for 10 minutes at 70° C. and the precipitated protein was then removed by centrifugation. The supernatant (approx. 2.0 mg×ml^−1) was concentrated to 5.0 mg×ml^−1 protein and then stored at −20° C. The heat treatment removed approx. 90% of undesired protein. Up to a protein concentration of 0.5 mg×ml^−1, the reaction rate was in direct proportion to the protein concentration. A protein concentration of 0.2 mg×ml^−1 was therefore routinely employed in the tests. To determine the pH optimum, the concentration of (R,S)-2,2-HTFMPA (substrate) was 0.5% (32 mM) and the temperature was 40° C. The buffers listed in Table 4 were employed in the test.
The effect of the temperature on the reaction was determined in 100 mM CAPS buffer (pH 10.0) at a substrate concentration of 0.5% (32 mM). The effect of the substrate concentration was determined at 60° C. in 100 mM CAPS buffer (pH 10.0), and the effect of methanol at 40 and 60° C. at a substrate concentration of 1% (64 mM) in 100 mM CAPS buffer (pH 10.0). […] The temperature optimum is 70° C. […] 10.4 Enzyme Immobilization

[1] = Activity and stability of enzyme immobilized on Eupergit C; type: biochemical, Klebsiella oxytoca; settings: 60° C., 4% racemic amide in 100 mM CAPS buffer (pH 10)
Protocol: The heat-treated cell-free extract was immobilized using Eupergit C (Röhm GmbH). To this end, Eupergit C (3.0 g) was added to 15 ml of heat-treated cell-free extract (protein concentration: 51 mg) in 1 M potassium phosphate buffer (pH 8.0). The mixture was incubated for 90 hours at room temperature with gentle stirring. The immobilized enzyme was filtered off and washed 4 times with 20 ml of 100 mM potassium phosphate buffer (pH 8.0). Support-bound enzyme (49 mg) gave 9.5 g of immobilized enzyme (fresh weight), which was stored in 100 mM potassium phosphate buffer (pH 10.0) at 4° C. To test the activity and stability of the immobilized enzyme, a small chromatography column was loaded with 5 g (25 mg of protein). A peristaltic pump (0.135 ml×min^−1) was used to circulate the substrate (100 ml 4% racemic amide in 100 mM CAPS buffer (pH 10)) between column and reservoir. The entire process was carried out in a water bath. At certain intervals, samples were taken for analysis. […] Three biotransformations (each with 4 g of racemic substrate, the first having been carried out at 60° C. and the remaining two at 40° C.) gave a total of 6 g of (S)-amide.

Molecule: CO [methanol]
- effect of methanol on the amidohydrolase (amidohydrolase): inhibitory effect
- effect of methanol on the amidohydrolase (amidohydrolase; listed as Methanol): inhibit the reaction

Molecule: C[C@@](O)(C(N)=O)C(F)(F)F [(R)-2,2-HTFMPA, 3,3,3-trifluoro-2-hydroxy-2-methyl-propionamide]
- Km (amidohydrolase; 60° C. in 100 mM CAPS buffer, pH 10): 32 mM

B1: amidohydrolase: (R)-stereospecific amidohydrolase from Klebsiella oxytoca PRS1/PRS1K17, SEQ ID No. 2; tested as heat-treated cell-free extract (protein, listed as Klebsiella oxytoca)
chain: MKWLEESIMAKRGVGAGRKPVTHHLTEEMQKEFHYTIGPYSTPVLTIEPGDRIIVDTRDAFEGAINSEQDIPSQLLKMPFLNPQNGPIMVNGAEKGDVLAVYIESMLPRGVDPYGICAMIPHFGGLTGTDLTAMLNDPLPEKVRMIKLDSEKVYWSKRHTLPYKPHIGTLSVSPEIDSINSLTPDNHGGNMDVPDIGPGSITYPLVRAPGGRLFIGDAHACQGDGEICGTAVEFASITTIKVDLIKNWQLSWPRMENAENIMSIGSARPLEDATRIAYRDLIYWLVEDFGFEQWDAYMLLSQCGKVRLGNMVDPKYTVGAMLNKNLLV
- specific activity [1]: 114 μg×min^−1×mg protein^−1
